Strand notation (5' to 3'): a small letter for the sugar, then the base; units joined by * are phosphorothioate-linked, units joined directly phosphodiester-linked; [ ] holds rarer units or linkages, { } end groups; capitals alone tell only the bases. e = 2'-O-(2-methoxyethyl) (MOE); [5mC] = 5-methylcytosine; d = 2'-deoxy (DNA)
Tests used:
SGLT2 mRNA = SGLT2 mRNA levels in kidney of Balb/c mice, twenty 1-10-1 MOE gapmers at 350 nmol/kg, PPS 534 and PPS 553 (Example 18, Table 74); type: in vivo, mouse; conditions: 350 nmol/kg i.p. twice per week for two weeks
Protocol: Twenty 1-10-1 MOE gapmers that are complementary to human/monkey/mouse/rat SGLT2 were designed, synthesized and tested in vivo for suppression of SGLT2 mRNA levels in kidney. Data are averages from two experiments in which male 6-week old Balb/c mice were administered intraperitoneal injections of 350 nmol/kg of oligonucleotide, twice per week, over a period of two weeks (a total of four injections). Mice were sacrificed 48 hours following the last administration and evaluated for SGLT2 mRNA levels in kidney. SGLT2 mRNA levels were determined by quantitative real-time PCR analysis according to standard procedures, using two different PCR primer probe sets, primer probe set (PPS) 534 and PPS 553. SGLT2 mRNA levels were normalized to cyclophilin mRNA levels, which were also measured by quantitative real-time PCR.

GCGR mRNA = GCGR mRNA levels in liver of C57/BL6 mice, single i.p. dose (Example 4, Tables 35-41); type: in vivo, mouse; conditions: liver, single i.p. dose, 48 hours
Protocol: (§1) Eight-week old male C57/BL6 mice (Jackson Laboratory, Bar Harbor, Me.) were administered a single dose of GCGR oligonucleotide by intraperitoneal injection at a concentration of […]. Each dose group consisted of four animals. Shown in Table 31 are the sequences, motifs and conjugates of the GCGR antisense compounds used in this study. Bolded residues indicate 2′-O-methoxyethyl (2′-MOE) moieties. All compounds comprise phosphorothioate internucleoside linkages throughout and each cytosine is replaced with 5-methylcytosine. ISIS 386626, ISIS 386627 and ISIS 386628 further comprise a C16 conjugate group attached to the 2′-O position of the sugar via a diamide linkage (2′-OCH2C(═O)N(H)(CH2)4N(H)C(═O)—(CH2)15CH3). GCGR antisense compounds target published GCGR sequences, including Genbank® Accession No. BC031885.1 (SEQ ID NO: 7).
(§2) Mice were sacrificed 48 hours following injection to determine serum transaminase levels (Table 32); liver, white adipose tissue (WAT), spleen and kidney weight (Table 33); cholesterol, triglyceride and glucose levels (Table 34); GCGR mRNA levels (Tables 35-41); and full-length and total oligonucleotide concentration in liver and kidney (Table 42). Endpoints were assessed using methods described herein and well known to those of ordinary skill in the art. Data is included from a pre-treatment bleed (Pre-Bleed) and post-treatment bleed (Post-Bleed).
To determine whether the phenotypic changes shown above correlated with a decrease in GCGR mRNA, treated animals were evaluated for levels of target mRNA in liver by real time PCR according to methods described herein. Tables 35 to 41 show results from direct comparisons of the antisense compounds targeting GCGR nucleic acid for their effect on target expression. Results are expressed as percent of saline control.

[1] = Triglyceride, cholesterol and glucose levels, pre-bleed and post-bleed (Example 4, Table 34); type: in vivo, mouse; conditions: C57/BL6 mice, single i.p. dose, 48 hours
Protocol: as §1, §2

mouse SGLT2 mRNA = assay: Mouse SGLT2 mRNA levels in kidney, additional 1-10-1 and 2-8-2 MOE gapmers, Balb/c mice (Example 15, Table 68); type: in vivo
Protocol: 1-10-1 and 2-8-2 MOE gapmer short antisense compounds were designed to target different regions of the mouse SGLT2 RNA but have complementarity across species. […] All cytidine residues are 5-methylcytidines.
The short antisense compounds were analyzed for their effect on mouse SGLT2 mRNA levels in vivo. Data was taken from three experiments in which male 6-week old Balb/c mice were dosed twice per week for three weeks with 0.5, 0.1, or 0.02 umol/kg of either a 1-10-1 or 2-8-2 MOE gapmer given by intraperitoneal injection. Mice were sacrificed 48 hours following last administration and evaluated for SGLT2 levels in kidney. Target levels were determined by RT, real-time PCR as described by other examples herein. PCR results were normalized to an internal ISIS control.

For “379695 (antisense eG*dG*dA*d[5mC]*dA*d[5mC]*d[5mC]*dG*dT*d[5mC]*dA*eG) [compound 379695]”, the “SGLT2 mRNA in kidney, % change relative to saline” value (SGLT2 mRNA; primer probe set 534) was −52.5% and the “SGLT2 mRNA in kidney, % change relative to saline” value (SGLT2 mRNA; primer probe set 553) was −64.1%.
For “379696 (antisense e[5mC]*dA*dG*d[5mC]*dT*dT*d[5mC]*dA*dG*dG*dT*eA) [compound 379696]”, the “SGLT2 mRNA in kidney, % change relative to saline” value (SGLT2 mRNA; primer probe set 534) was −24.6% and the “SGLT2 mRNA in kidney, % change relative to saline” value (SGLT2 mRNA; primer probe set 553) was −36.2%.
With “379697 (antisense e[5mC]*dT*dG*dG*d[5mC]*dA*dT*dG*dA*d[5mC]*d[5mC]*eA) [compound 379697]” the “SGLT2 mRNA in kidney, % change relative to saline” value (SGLT2 mRNA; primer probe set 534) was −32.0% and the “SGLT2 mRNA in kidney, % change relative to saline” value (SGLT2 mRNA; primer probe set 553) was −46.3%.
With “379698 (antisense eG*d[5mC]*dA*dG*d[5mC]*d[5mC]*d[5mC]*dA*d[5mC]*d[5mC]*dT*e[5mC]) [compound 379698]” the “SGLT2 mRNA in kidney, % change relative to saline” value (SGLT2 mRNA; primer probe set 534) was −11.8% and the “SGLT2 mRNA in kidney, % change relative to saline” value (SGLT2 mRNA; primer probe set 553) was −27.0%.
With “379699 (antisense eG*dG*d[5mC]*dA*dT*dG*dA*dG*d[5mC]*dT*dT*e[5mC]) [compound 379699]” the “SGLT2 mRNA in kidney, % change relative to saline” value (SGLT2 mRNA; primer probe set 534) was −83.5% and the “SGLT2 mRNA in kidney, % change relative to saline” value (SGLT2 mRNA; primer probe set 553) was −85.8%.
In the case of “379700 (antisense e[5mC]*d[5mC]*dA*dG*d[5mC]*dA*dT*dG*dA*dG*dT*e[5mC]) [compound 379700]”, the “SGLT2 mRNA in kidney, % change relative to saline” value (SGLT2 mRNA; primer probe set 534) is reported as −2.8% and the “SGLT2 mRNA in kidney, % change relative to saline” value (SGLT2 mRNA; primer probe set 553) is reported as −16.4%.
In the case of “379701 (antisense e[5mC]*d[5mC]*dA*dT*dG*dG*dT*dG*dA*dA*dG*eA) [compound 379701]”, the “SGLT2 mRNA in kidney, % change relative to saline” value (SGLT2 mRNA; primer probe set 534) is reported as −0.3% and the “SGLT2 mRNA in kidney, % change relative to saline” value (SGLT2 mRNA; primer probe set 553) is reported as −11.9%.
In the case of “379702 (antisense eG*d[5mC]*dA*d[5mC]*dA*d[5mC]*dA*dG*d[5mC]*dT*dG*e[5mC]) [compound 379702]”, the “SGLT2 mRNA in kidney, % change relative to saline” value (SGLT2 mRNA; primer probe set 534) is reported as −87.8% and the “SGLT2 mRNA in kidney, % change relative to saline” value (SGLT2 mRNA; primer probe set 553) is reported as −89.5%.
In the case of “379703 (antisense eG*d[5mC]*d[5mC]*dG*dG*dA*dG*dA*d[5mC]*dT*dG*eA) [compound 379703]”, the “SGLT2 mRNA in kidney, % change relative to saline” value (SGLT2 mRNA; primer probe set 534) is reported as −44.2% and the “SGLT2 mRNA in kidney, % change relative to saline” value (SGLT2 mRNA; primer probe set 553) is reported as −45.9%.
With “ISIS 386626: GCGR 2-10-2 MOE gapmer with C16 conjugate group at the 2′-O position via a diamide linkage (antisense GCTTCTCCATCATA; chemistry not fully specified)” the “GCGR mRNA expression” value (GCGR mRNA) was “greatest decrease” and the post-bleed glucose levels [1] was “decreased in a dose-dependent manner”.
With “ISIS 388627 (antisense eG*e[5mC]*dA*d[5mC]*dA*d[5mC]*dA*dG*d[5mC]*dT*eG*e[5mC])” the “% change in SGLT2 expression relative to saline” value (mouse SGLT2 mRNA; 0.02 umol/kg i.p. twice per week for three weeks) was −38%, the “% change in SGLT2 expression relative to saline” value (mouse SGLT2 mRNA; 0.1 umol/kg i.p. twice per week for three weeks) was −50% and the “% change in SGLT2 expression relative to saline” value (mouse SGLT2 mRNA; 0.5 umol/kg i.p. twice per week for three weeks) was −65%.

Source: patent US8188059B2, “Compounds and methods for modulating expression of GCGR” (Isis Pharmaceuticals, Inc., priority 2006, dated 2012)
